Values of other authors, collected in publication PMC6891678, “A Novel Prodrug Approach for Central Nervous System-Selective Estrogen Therapy” (Molecules, 2019).

Tests used:
brain homogenate = settings: 100 μM, 37 °C, homogenate 0.2% w/v, pH 7.4; mean ± SD
retina homogenate = settings: 100 μM, 37 °C, homogenate 0.2% w/v, pH 7.4; mean ± SD
liver homogenate = settings: 100 μM, 37 °C, homogenate 0.2% w/v, pH 7.4; mean ± SD
[1] = tested on: ER transcription (ERE-Luc reporter)
amyloid-β peptide (Aβ) = settings: OVX and intact female APPswe/PS1dE9 DTG mice
[2] = tested on: MCP-1−/− transgenic mouse model; parameters: method as in earlier work; settings: topical eye drops; for increase of contrast sensitivity compared to the vehicle control: ipsilateral/treated eye
[3] = tested on: middle-aged OVX Fisher-344 rats; settings: continuous 7-week s.c. administration, 4 µg daily dose
[4] = tested on: transient middle cerebral artery occlusion (tMCAO) ischemic stroke model; settings: for ED50 (dose equivalent to 50% of the maximum effect): neuroprotection, tMCAO followed by reperfusion
[5] = not given; remark: listed apart in the source
uterus [6] = settings: after E2-CDS
[7] = E2-CDS-treated animals
OVX CD1 mice = settings: increasing s.c. doses, 5 days once daily
uterus [8] = settings: increasing s.c. doses, 5 days once daily
[9] = 300 µg/kg s.c., 5 days once daily, SEM, n = 4

Q: Which results are given for `C[C@]12CC[C@@H]3C4=C(CC[C@H]3[C@@H]1CCC2=O)C(=O)C(=O)C=C4` [3,4-E1-quinone, estra-1,5(10)-dien-3,4,17-trione, reference compound]?
A: Rate of H2O2 production, Brain (brain homogenate): 1050 ± 8 nmol·h^−1·mg protein^−1; Rate of H2O2 production, Retina (retina homogenate): 580 ± 50 nmol·h^−1·mg protein^−1; Rate of H2O2 production, Liver (liver homogenate): 687 ± 40 nmol·h^−1·mg protein^−1

Q: Which “ER activation within the brain (bioluminescence in brain slices)” value ([1]; i.c.v. injection, 75 µg/kg) does the source give for `C[C@]12CC[C@H]3[C@@H](CCC4=CC(=O)C=C[C@@]43O)[C@@H]1CC[C@@H]2O` [DHED, 10β,17β-dihydroxyestra-1,4-dien-3-one] here?
A: profound ER activation

Q: What about the “bioluminescence in the periphery (ERE-Luc reporter activation)” value ([1]; s.c., E2 20 μg/kg, DHED 200 μg/kg) of the same compound?
A: did not generate bioluminescence in the periphery

Q: What about the “Rate of H2O2 production, Brain” value (brain homogenate) of the same compound?
A: 125 ± 19 nmol·h^−1·mg protein^−1

Q: And the “amyloid-β peptide (Aβ) levels in the brain” value (amyloid-β peptide (Aβ))?
A: decreased amyloid-β peptide (Aβ) levels in the brain

Q: What about the “increase of contrast sensitivity compared to the vehicle control” value [2] of the same compound?
A: approximately 3 fold

Q: And the “preservation of contrast sensitivity compared to the wild-type (WT) control” value [2]?
A: approximately 75%

Q: And the oral bioavailability?
A: excellent oral bioavailability

Q: What about the “working memory errors compared to control animals” value [3] of the same compound?
A: significantly decreased working memory errors

Q: And the “Rate of H2O2 production, Retina” value (retina homogenate)?
A: 163 ± 9 nmol·h^−1·mg protein^−1

Q: What about the “ED50 (dose equivalent to 50% of the maximum effect)” value [4] of the same compound?
A: 15 µg/kg

Q: What about the “Rate of H2O2 production, Liver” value (liver homogenate) of the same compound?
A: 34 ± 18 nmol·h^−1·mg protein^−1

Q: Which “time of maximum bioluminescence effect after drug treatment” value ([1]; E2 20 μg/kg s.c.) does the source give for `C[C@]12CC[C@@H]3c4ccc(O)cc4CC[C@H]3[C@@H]1CC[C@@H]2O` [E2, 17β-estradiol, reference compound] here?
A: about 3 h

Q: And the “increase of contrast sensitivity compared to the vehicle control” value [2]?
A: ~2 fold

Q: And the “preservation of contrast sensitivity compared to the wild-type (WT) control” value [2]?
A: ~50%

Q: And the oral bioavailability?
A: lacks appreciable oral bioavailability

Q: What about the “ED50 (dose equivalent to 50% of the maximum effect)” value [4] of the same compound?
A: ~ 200 µg/kg

Q: And the “E2 concentration in the retina” value ([5]; 3-week daily E2 eye drops)?
A: ~ 22 ng/g

Q: What about the circulating estrogen levels ([5]; chronic E2 eye drop treatment) of the same compound?
A: > 400 pg/mL

Q: Which “wet uterine weight relative to control (uterotrophic effect)” value (uterus [6]) does the source give for `CN1C=CCC(C(=O)O[C@H]2CC[C@H]3[C@@H]4CCc5cc(O)ccc5[C@H]4CC[C@]23C)=C1` [E2-CDS] here?
A: significant increase in wet uterine weight

Q: What about the “E2 content of uterus” value [7] of the same compound?
A: 1 to 3 ng/g

Q: With `C[C@]12CC[C@H]3[C@@H](CCC4=CC(=O)C=C[C@@]43O)[C@@H]1CCC2=O` [HEDD, 10β-hydroxyestra-1,4-dien-3,17-dione] as the compound, how does the “neuroprotection in stroke model” value ([4]; without peripheral hormonal liability) read?
A: significant neuroprotection

Q: For `C[C@]12CC[C@H]3[C@@H](CCC4=CC(=O)C=C[C@@]43O)[C@@H]1CC[C@H]2O` [αDHED, 10β,17α-dihydroxyestra-1,4-dien-3-one], which “immobility time in PST” value (OVX CD1 mice) is on record?
A: dose-dependent reduction in immobility times

Q: What about the “uterotrophic effect (wet uterus weight)” value (uterus [8]) of the same compound?
A: devoid of this detrimental common side effect

Q: And the “Cortex αE2” value [9]?
A: 8.9 ± 1.7 ng/g

Q: And the “Serum αE2” value [9]?
A: <0.01 ng/mL

Q: What about the “Cortex E2” value ([9]; endogenous E2) of the same compound?
A: 0.28 ± 0.09 ng/g

Q: And the “Serum E2” value ([9]; endogenous E2)?
A: <0.01 ng/mL

Q: And the “Uterus E2” value ([9]; endogenous E2)?
A: 0.37 ± 0.10 ng/g

Q: Which “immobility time in PST” value (OVX CD1 mice) does the source give for `C[C@]12CC[C@@H]3c4ccc(O)cc4CC[C@H]3[C@@H]1CC[C@H]2O` [αE2, 17α-estradiol, reference compound] here?
A: dose-dependent reduction in immobility times
